# Patent US20240366599A1, “HUMAN EFFICACIOUS DOSE AND DOSAGE SCHEDULE OF SPR720” (SPERO THERAPEUTICS, INC., priority 2021, published 2024)
# Tests used:
# Format in all cases: in vivo, human
# [1] = Single ascending dose (SAD) study: pharmacokinetics of SPR719 after oral SPR720; settings: SPR720 1000 mg, fed vs fasted; considered non-clinically significant
# Procedure: (§1) The following study was conducted in healthy volunteers to evaluate the safety, tolerability, and pharmacokinetics of SPR720/SPR719. The study included 7 SAD cohorts, of which one was a food effect cohort. SPR720 or placebo (n=8/cohort, 3:1 randomization) were administered to subjects at doses of 100 to 2000 mg in the fasted or fed state. The cohorts administered SPR720 in the fed state were administered 1000 mg or 500 mg (healthy elderly cohort) SPR720. A schematic of the study design appears in FIG. 1.
# [2] = Multiple ascending dose (MAD) study: safety and tolerability
# Procedure: The multiple ascending dose study utilized 5 cohorts of 8 subjects. Three cohorts were administered a total daily dose of 500 mg to 1500 mg in the fasted state for 7 days. Two cohorts were administered a total daily dose of 500 mg or 1000 mg in the fed state for 14 days. Safety was also monitored throughout the study. […] This conclusion was further supported by stable SPR719 trough concentrations by Day 7 (data not shown). Mean plasma concentration/time curves are shown for the MAD cohorts at days 1 (FIG. 3A), 7 (FIG. 3B), and 14 (FIG. 3C). 2.
# [3] = Single ascending dose (SAD) study: safety and tolerability
# Procedure: as §1
# [4] = MAD Cohort 1, 500 mg 7 days, fasted, N=6
# [5] = MAD Cohort 2, 1000 mg 7 days, fasted, N=6
# [6] = MAD Cohort 3, 750 mg q12 h 7 days, fasted, N=6
# [7] = MAD Cohort 4, 500 mg 14 days, fed, N=6
# [8] = MAD Cohort 5, 1000 mg 14 days, fed, N=6
# [9] = SAD Cohort 4, 1000 mg Fasted, N=6
structure (smiles),measurement,setting,value
"CCNC(=O)Nc1nc2cc(-c3cnc(C(C)(C)OP(=O)(O)O)cn3)c(F)c([C@H]3CCCO3)c2[nH]1 [SPR720, fobrepodacin]",Food effect: plasma exposure after high fat meal relative to fasted state,[1],no significant food effect
same,Subjects reporting TEAEs,[2]; MAD 1000 mg cohorts,50.0%
same,Subjects reporting TEAEs,[2]; MAD 1500 mg (750 mg q12h) cohort,66.7%
same,Incidence of TEAE: Abdominal Pain,[2]; [4],0 Number (%) of Subjects
same,Incidence of TEAE: Diarrhea (first line),[2]; [4],2 (33.3) Number (%) of Subjects
same,Incidence of TEAE: Diarrhea (second line),[2]; [4],0 Number (%) of Subjects
same,Incidence of TEAE: Headache,[2]; [4],2 (33.3) Number (%) of Subjects
same,Incidence of TEAE: Nausea,[2]; [4],2 (33.3) Number (%) of Subjects
same,Incidence of TEAE: Vomiting,[2]; [4],1 (16.7) Number (%) of Subjects
same,Incidence of TEAE: Abdominal Pain,[2]; [5],1 (16.7) Number (%) of Subjects
same,Incidence of TEAE: Diarrhea (first line),[2]; [5],4 (66.7) Number (%) of Subjects
same,Incidence of TEAE: Diarrhea (second line),[2]; [5],2 (33.3) Number (%) of Subjects
same,Incidence of TEAE: Headache,[2]; [5],3 (50.0) Number (%) of Subjects
same,Incidence of TEAE: Nausea,[2]; [5],1 (16.7) Number (%) of Subjects
same,Incidence of TEAE: Vomiting,[2]; [5],2 (33.3) Number (%) of Subjects
same,Incidence of TEAE: Abdominal Pain,[2]; [6],0 Number (%) of Subjects
same,Incidence of TEAE: Diarrhea (first line),[2]; [6],4 (66.7) Number (%) of Subjects
same,Incidence of TEAE: Diarrhea (second line),[2]; [6],1 (16.7) Number (%) of Subjects
same,Incidence of TEAE: Headache,[2]; [6],2 (33.3) Number (%) of Subjects
same,Incidence of TEAE: Nausea,[2]; [6],3 (50.0) Number (%) of Subjects
same,Incidence of TEAE: Vomiting,[2]; [6],1 (16.7) Number (%) of Subjects
same,Incidence of TEAE: Abdominal Pain,[2]; [7],0 Number (%) of Subjects
same,Incidence of TEAE: Diarrhea (first line),[2]; [7],0 Number (%) of Subjects
same,Incidence of TEAE: Diarrhea (second line),[2]; [7],0 Number (%) of Subjects
same,Incidence of TEAE: Headache,[2]; [7],1 (16.7) Number (%) of Subjects
same,Incidence of TEAE: Nausea,[2]; [7],0 Number (%) of Subjects
same,Incidence of TEAE: Vomiting,[2]; [7],0 Number (%) of Subjects
same,Incidence of TEAE: Abdominal Pain,[2]; [8],1 (16.7) Number (%) of Subjects
same,Incidence of TEAE: Diarrhea (first line),[2]; [8],3 (50.0) Number (%) of Subjects
same,Incidence of TEAE: Diarrhea (second line),[2]; [8],0 Number (%) of Subjects
same,Incidence of TEAE: Headache,[2]; [8],0 Number (%) of Subjects
same,Incidence of TEAE: Nausea,[2]; [8],1 (16.7) Number (%) of Subjects
same,Incidence of TEAE: Vomiting,[2]; [8],0 Number (%) of Subjects
same,Subjects who discontinued study drug due to increased pancreatic enzymes,"[2]; MAD cohort 3 (750 mg q12h), asymptomatic, resolved without interventional treatment",One
same,Subjects reporting TEAEs,"[2]; MAD overall, 18 of 30 subjects who received SPR720",60.0%
same,Total number of TEAEs reported,"[2]; MAD overall, 30 subjects",101
same,Serious adverse events,[2]; MAD study,No serious adverse events
same,Severity of TEAEs,"[2]; MAD, all TEAEs",mild or moderate
same,Incidence of TEAE: Abdominal Pain,"[2]; Overall MAD SPR720, N=30",2 (6.7) Number (%) of Subjects
same,Incidence of TEAE: Diarrhea (first line),"[2]; Overall MAD SPR720, N=30",13 (42.3) Number (%) of Subjects
same,Incidence of TEAE: Diarrhea (second line),"[2]; Overall MAD SPR720, N=30",3 (10.0) Number (%) of Subjects
same,Incidence of TEAE: Headache,"[2]; Overall MAD SPR720, N=30",8 (26.7) Number (%) of Subjects
same,Incidence of TEAE: Nausea,"[2]; Overall MAD SPR720, N=30",7 (23.3) Number (%) of Subjects
same,Incidence of TEAE: Vomiting,"[2]; Overall MAD SPR720, N=30",4 (13.3) Number (%) of Subjects
same,Cases of Hy's Law,[2]; over 14 days of dosing,no cases
same,Elevations in ALT,"[2]; over 14 days of dosing, slight, asymptomatic and reversible",< 3 ×ULN
same,Tolerability,[2]; repeat daily oral doses up to 1000 mg over maximum duration of 14 days,well-tolerated
same,Incidence of TEAE: Diarrhea,"[3]; SAD 500 mg Elderly, N=6",0 Number (%) of Subjects
same,Incidence of TEAE: Headache,"[3]; SAD 500 mg Elderly, N=6",0 Number (%) of Subjects
same,Incidence of TEAE: Nausea,"[3]; SAD 500 mg Elderly, N=6",0 Number (%) of Subjects
same,Incidence of TEAE: Vomiting,"[3]; SAD 500 mg Elderly, N=6",0 Number (%) of Subjects
same,Subjects reporting TEAEs,[3]; SAD 1500 mg cohort,66.7%
same,Subjects reporting TEAEs,[3]; SAD 2000 mg cohort,100%
same,Incidence of TEAE: Diarrhea,"[3]; SAD Cohort 1, 100 mg, N=6",0 Number (%) of Subjects
same,Incidence of TEAE: Headache,"[3]; SAD Cohort 1, 100 mg, N=6",0 Number (%) of Subjects
same,Incidence of TEAE: Nausea,"[3]; SAD Cohort 1, 100 mg, N=6",0 Number (%) of Subjects
same,Incidence of TEAE: Vomiting,"[3]; SAD Cohort 1, 100 mg, N=6",0 Number (%) of Subjects
same,Incidence of TEAE: Diarrhea,"[3]; SAD Cohort 2, 250 mg, N=6",0 Number (%) of Subjects
same,Incidence of TEAE: Headache,"[3]; SAD Cohort 2, 250 mg, N=6",0 Number (%) of Subjects
same,Incidence of TEAE: Nausea,"[3]; SAD Cohort 2, 250 mg, N=6",0 Number (%) of Subjects
same,Incidence of TEAE: Vomiting,"[3]; SAD Cohort 2, 250 mg, N=6",0 Number (%) of Subjects
same,Incidence of TEAE: Diarrhea,"[3]; SAD Cohort 3, 500 mg, N=6",1 (16.7) Number (%) of Subjects
same,Incidence of TEAE: Headache,"[3]; SAD Cohort 3, 500 mg, N=6",0 Number (%) of Subjects
same,Incidence of TEAE: Nausea,"[3]; SAD Cohort 3, 500 mg, N=6",0 Number (%) of Subjects
same,Incidence of TEAE: Vomiting,"[3]; SAD Cohort 3, 500 mg, N=6",0 Number (%) of Subjects
same,Incidence of TEAE: Diarrhea,[3]; [9],0 Number (%) of Subjects
same,Incidence of TEAE: Headache,[3]; [9],1 (16.7) Number (%) of Subjects
same,Incidence of TEAE: Nausea,[3]; [9],0 Number (%) of Subjects
same,Incidence of TEAE: Vomiting,[3]; [9],0 Number (%) of Subjects
same,Incidence of TEAE: Diarrhea,"[3]; SAD Cohort 4, 1000 mg Fed, N=6",0 Number (%) of Subjects
same,Incidence of TEAE: Headache,"[3]; SAD Cohort 4, 1000 mg Fed, N=6",0 Number (%) of Subjects
same,Incidence of TEAE: Nausea,"[3]; SAD Cohort 4, 1000 mg Fed, N=6",0 Number (%) of Subjects
same,Incidence of TEAE: Vomiting,"[3]; SAD Cohort 4, 1000 mg Fed, N=6",0 Number (%) of Subjects
same,Incidence of TEAE: Diarrhea,"[3]; SAD Cohort 5, 1500 mg, N=6",0 Number (%) of Subjects
same,Incidence of TEAE: Headache,"[3]; SAD Cohort 5, 1500 mg, N=6",3 (50.0) Number (%) of Subjects
same,Incidence of TEAE: Nausea,"[3]; SAD Cohort 5, 1500 mg, N=6",4 (66.7) Number (%) of Subjects
same,Incidence of TEAE: Vomiting,"[3]; SAD Cohort 5, 1500 mg, N=6",3 (50.0) Number (%) of Subjects
same,Incidence of TEAE: Diarrhea,"[3]; SAD Cohort 6, 2000 mg, N=6",2 (33.3) Number (%) of Subjects
same,Incidence of TEAE: Headache,"[3]; SAD Cohort 6, 2000 mg, N=6",3 (50.0) Number (%) of Subjects
same,Incidence of TEAE: Nausea,"[3]; SAD Cohort 6, 2000 mg, N=6",5 (83.3) Number (%) of Subjects
same,Incidence of TEAE: Vomiting,"[3]; SAD Cohort 6, 2000 mg, N=6",5 (83.3) Number (%) of Subjects
same,Incidence of TEAE: Diarrhea,"[3]; SAD Overall SPR720, n=42",3 (7.1) Number (%) of Subjects
same,Incidence of TEAE: Headache,"[3]; SAD Overall SPR720, n=42",7 (16.7) Number (%) of Subjects
same,Incidence of TEAE: Nausea,"[3]; SAD Overall SPR720, n=42",9 (21.4) Number (%) of Subjects
same,Incidence of TEAE: Vomiting,"[3]; SAD Overall SPR720, n=42",8 (19.0) Number (%) of Subjects
same,Subjects reporting TEAEs,"[3]; SAD overall, 18 of 42 subjects",42.9%
same,Total number of TEAEs reported,"[3]; SAD overall, 42 subjects",35
same,Serious adverse events,[3]; SAD study,No serious adverse events
same,Severity of TEAEs,"[3]; SAD, all TEAEs",mild or moderate
